Experiments:
[1] = tested on: LPS-induced immunologically relevant genes in mouse macrophages; test: Microarray analysis of macrophages cultured with LPS +/- Glyco 23; format: cell-based; details: Affymetrix Murine Genome Array U74Av2; LPS maximum set as 100%
Method: The maximum level of each gene expression attained in the presence of LPS was set as 100%. […] The analysis was performed using the Affymetrix GeneChip® Murine Genome Array U74Av2 probe array.

CD14 = target: T1, CD14 (Mus musculus, UniProt P10810); test: Macrophage surface expression by antibody staining: CD14; format: cell-based; details: RAW264.7 macrophages, 10 μg/ml, 30 min
T1 construct: endogenous in cells; host or cells: RAW264.7 macrophages
T1 sequence (P10810 16-336): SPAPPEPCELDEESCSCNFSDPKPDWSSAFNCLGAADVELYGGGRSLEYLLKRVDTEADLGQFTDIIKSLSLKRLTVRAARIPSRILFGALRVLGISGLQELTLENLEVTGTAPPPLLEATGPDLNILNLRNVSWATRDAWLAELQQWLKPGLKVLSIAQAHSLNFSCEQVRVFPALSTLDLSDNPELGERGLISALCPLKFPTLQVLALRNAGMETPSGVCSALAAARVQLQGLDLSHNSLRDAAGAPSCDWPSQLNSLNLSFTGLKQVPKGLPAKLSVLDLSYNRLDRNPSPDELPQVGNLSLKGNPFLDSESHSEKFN
Method: (§1) Effects of Glyco 23 on TLR pathway: We studied expression of macrophage CD14 and TLR4 in an in vitro model system using cultured macrophages to relate Glyco 23 mechanism of action to events upstream of cytokine gene expression. […] This observation is significant in light of very recent studies showing that CD14 inhibition using anti-CD14 antibodies in an in vivo pig model of gram-negative sepsis and endotoxemia.^(42)
(§2) Macrophages (RAW264.7) were incubated in the absence or presence of sophorolipids (SL, 10 μg/ml, 30 min, room temperature), washed with phosphate-buffered saline (PBS), and anti-CD 14 or anti-TLR4 antibodies (Santa Cruz Biotechnology, 10 μg/ml, 30 min, room temperature). The cells were then washed with PBS and staining was performed using ABC staining system (Santa Cruz Biotechnology), according to manufacturer's instructions. The cells were then fixed with 1% formaldehyde and examined microscopically. A total of 200 cells were scored in triplicate for each determination, and results expressed as % of total cells counted.

[2] = tested on: septic peritonitis via CLP; test: CLP model of intra-abdominal sepsis: survival / mortality; format: in vivo, rat; details: same CLP model, FIG. 4
Method: Effect of Glyco 23 on mortality in intra-abdominal sepsis. […] The CLP model was chosen for its reproducible mortality rates and its ability to mimic fecal peritonitis.
This dose is well below the LD50 (6-7 gm/kg) of naturally occurring sophorolipids in rodents.^(40,41). Doses were given at the end of the surgery, and animals were followed for 36 hours. Kaplan Meier statistics were performed on survival.

[3] = tested on: galactosamine-sensitized LPS endotoxic shock; test: Galactosamine-sensitized LPS endotoxic shock mortality; format: in vivo, mouse
Excerpt: Therefore, treatment after 2 hr can be compared to treatment after 24 hrs or later in conventional models.

TGF-β1 = test: RNase Protection Assay, splenocyte mRNA of CLP-septic rats: TGF-β1; format: in vivo, rat; details: splenocytes at 6 hrs; percent control (CLP+vehicle) +/- SEM; P<0.05
Excerpt: (§3) Data are expressed as percent control (CLP+vehicle)+/−SEM. Treatment groups were significant (p<0.05) compared with control using student's T test. CLP=cecal ligation and puncture; SL=sophorolipid

[4] = Dosage finding after CLP, tail vein IV; format: in vivo; details: 24 mg/kg IV in 50% ethanol-PBS; possibly due to ethanol concentration
Method: Dosage To determine the optimum dose that can be administered to the rats, 3 different doses of Glyco 23, 6 mg/kg, 12 mg/kg and 24 mg/kg of rat body weight (in 50% ethanol-PBS) was administered using tail vein IV to 9 rats following the Cecal Ligation and Puncture (CLP). Control rats (n=3) were injected with 0.5 ml of PBS. […] Rats that received […] and 12 mg/kg doses survived after 24 hours. Blood was obtained before they were sacrificed the next day.

IL-8 = test: Cytokine responses in vitro: IL-8; format: cell-based; details: compared with the natural mixture responses, FIG. 5
TLR4 = target: T2, TLR4 (Mus musculus, UniProt Q9QUK6); test: Macrophage surface expression by antibody staining: TLR4; format: cell-based; details: RAW264.7 macrophages, 10 μg/ml, 30 min
T2 construct: endogenous in cells; host or cells: RAW264.7 macrophages
T2 sequence (Q9QUK6 26-835): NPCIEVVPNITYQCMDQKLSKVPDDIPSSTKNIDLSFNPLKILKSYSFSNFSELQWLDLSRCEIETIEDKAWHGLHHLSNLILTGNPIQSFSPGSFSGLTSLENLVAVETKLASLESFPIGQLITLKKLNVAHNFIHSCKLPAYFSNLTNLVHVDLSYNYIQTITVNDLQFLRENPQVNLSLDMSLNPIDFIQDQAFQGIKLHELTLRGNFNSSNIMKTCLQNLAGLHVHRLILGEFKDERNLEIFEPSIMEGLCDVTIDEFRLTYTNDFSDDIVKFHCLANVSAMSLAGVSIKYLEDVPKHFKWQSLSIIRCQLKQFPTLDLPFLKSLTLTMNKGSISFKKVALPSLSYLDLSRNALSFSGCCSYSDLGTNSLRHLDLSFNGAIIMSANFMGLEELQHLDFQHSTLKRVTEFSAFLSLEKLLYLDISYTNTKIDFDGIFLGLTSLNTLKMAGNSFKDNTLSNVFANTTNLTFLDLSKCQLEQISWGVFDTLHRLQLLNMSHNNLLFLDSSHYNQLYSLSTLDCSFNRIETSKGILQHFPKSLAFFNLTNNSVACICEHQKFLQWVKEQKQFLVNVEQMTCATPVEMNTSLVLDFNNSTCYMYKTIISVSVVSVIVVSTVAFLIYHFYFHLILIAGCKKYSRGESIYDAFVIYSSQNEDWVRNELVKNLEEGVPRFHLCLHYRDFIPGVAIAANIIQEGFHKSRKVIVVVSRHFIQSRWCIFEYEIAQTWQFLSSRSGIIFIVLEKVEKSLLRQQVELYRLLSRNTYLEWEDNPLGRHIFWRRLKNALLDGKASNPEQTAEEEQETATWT
Method: as §1, §2

[5] = tested on: standard bacterial isolates; test: Antibiotic activity, broth microdilution method; format: cell-based; details: clinically relevant concentrations
[6] = tested on: septic peritonitis via CLP; test: Survival, WBC and blood culture at 3 hours and 24 hours post insult (CLP); format: in vivo, rat; details: 5 mg/kg IV at end of surgery, n=6/group; for Survival 24 Hs. post insult: % printed only over the 3 hours column
Method: Survival at 3 hours and 24 hours post insult. […] Doses were given at the end of the surgery, and animals were followed for 24 hours (Table 1)

IL-1β = test: RNase Protection Assay, splenocyte mRNA of CLP-septic rats: IL-1β; format: in vivo, rat; details: 5 mg/kg; splenocytes at 6 hrs; percent control (CLP+vehicle) +/- SEM; P<0.05
Excerpt: as §3

IL-1 = test: Cytokine responses in vitro: IL-1; format: cell-based; details: compared with the natural mixture responses, FIG. 5
Interleukin-6 (IL-6) = test: Serum IL-6 by ELISA 3 hrs after CLP; format: in vivo, rat; details: natural mixture versus free acid form, FIG. 10
Method: Serum samples were obtained from rats (N=5 animals/group) 3 hrs. after (CLP) to establish polymicrobial sepsis, and intravenous injection of saline (control), sophorolipids-natural mixture (SL) or Glyco 23. Serum concentrations of Interleukin-6 (IL-6) were determined using commercial ELISA tests according to manufacturer's instructions. Results were evaluated for statistical significance using ANOVA.

Compound	expression of genes upregulated more than 5 fold by LPS [1]	surface expression of CD14 (CD14)	Mortality rate reduced compared to vehicle [2] [%]	Mortality (%) ([3]; LPS at 0 hs, Glyco at 0 hs, n = 9)	Mortality (%) ([3]; LPS at 0 hs, Glyco at 1.5 hs, n = 10)	Mortality (%) ([3]; LPS at 1.5 hs, Glyco at 0 hs, n = 10)	decrease of endotoxin mortality ([3]; administered 2 hr after insult, versus positive control mice) [%]	increased expression of TGF-β1 (mRNA) (TGF-β1) [%]	time to death of all rats [4] [h]	IL-8 cytokine response suppression (IL-8)	surface expression of TLR4 (TLR4)	antibiotic activity [5]	Survival % 3 hours post insult [6] [%]	Survival 24 Hs. post insult [6] [%]	reduction in IL-1β expression (mRNA) (IL-1β)	IL-1 cytokine response suppression (IL-1)	difference between the inhibitory effects on serum IL-6 (Interleukin-6 (IL-6))
CCOC(=O)CCCCCCC/C=C\CCCCCCC(C)OC1O[C@H](CO)[C@@H](O)[C@H](O)[C@H]1OC1O[C@H](CO)[C@@H](O)[C@H](O)[C@H]1O (relative stereo) [Glyco 23, Ethyl-17-L-[(2′-O-D-glucopyranosyl-D-glucopyranosyl)-oxy]-cis-9-octadecenoate]	suppressed	interferes with surface expression	37	89	30	80	56	11.7±1.5	≤ 2	decreased	interferes with surface expression	no significant antibiotic activity	100	100	42.5%±4.7%	decreased	
Lipid A [reference compound]													50	32			
CC(CCCCCC/C=C\CCCCCCCC(=O)O)O[C@@H]1O[C@H](CO)[C@@H](O)[C@H](O)[C@H]1O[C@@H]1O[C@H](CO)[C@@H](O)[C@H](O)[C@H]1O (relative stereo) [Sohorolipid Free Acid derivative, 17-L-[(2′-O-b-D-glucopyranosyl-b-D-glucopyranosyl)-oxy]-cis-9-octadecenoatede-acetylated free acid]													100	90			No significant difference
